Experiment [1] has as its system NCI/ADR-RES. The experiment is described as follows: Antiproliferative activity against human MCF7/ADR cells after 48 hrs by MTT assay. Format: functional, cell-based. On the technique in general: Tetrazolium assays rely on reduction of a dye to a coloured formazan, in cell work by metabolically active cells.
Experiment [2] has as its system MDA-MB-231. In words: Antiproliferative activity against human MDA-MB-231 cells after 48 hrs by MTT assay. The format is functional, cell-based. Conditions: MDA-MB-231, 48 h.
Experiment [3] concerns HepG2. In words: Antiproliferative activity against human HepG2 cells after 48 hrs by MTT assay. Format: functional, cell-based. Conditions: HepG2, 48 h.
Experiment [4] relates to L02. In words: Antiproliferative activity against human L02 cells after 48 hrs by MTT assay. Format: functional, cell-based. The following applies: L02, 48 h.
Experiment [5] has as its system MCF7. In words: Antiproliferative activity against human MCF7 cells after 48 hrs by MTT assay. The format is functional, cell-based. Conditions: MCF7, 48 h.
The test system of experiment [6] is A549. The experiment is described as follows: Antiproliferative activity against human A549 cells after 48 hrs by MTT assay. The format is functional, cell-based. Conditions: A549, 48 h.
For experiment [7], the system named is MCF7. In words: Antiproliferative activity against human MCF7 cells assessed as growth inhibition at 3 uM after 48 hrs by MTT assay relative to control. The format is functional. Conditions: read-out: GI.
Experiment [8] concerns NCI/ADR-RES. The experiment is described as follows: Reversal of multidrug resistant activity in human MCF7/ADR cells after 48 hrs by MTT assay. Format: functional, cell-based.
Experiment [9] has as its system Calf thymus DNA. The experiment is described as follows: Binding affinity to calf thymus DNA assessed as hypochromicity at 20 uM measured by UV-vis absorption spectroscopy. The following applies: Bos taurus. The format is nucleic-acid assay.
Experiment [10] deals with Calf thymus DNA. The experiment is described as follows: Binding affinity to calf thymus DNA assessed as red shift in absorption spectra at 20 uM by UV-vis absorption spectroscopy. The format is nucleic-acid assay. The following applies: Bos taurus.

Usually IC50 stands for the concentration that inhibits the measured activity by half. For `Cc1cn(CCCCOc2ccc3c4c(nccc24)-c2ccccc2C3=O)cn1`, the half-maximal inhibitory concentration (IC50) in experiment [1] was 13.6 µM; in [2], 9.47 µM; in experiment [3], 11.1 µM; in experiment [4] it was 28.2 µM; in [5], 9.42 µM; in [6] it was 9.63 µM.

As for `O=C1c2ccccc2-c2nccc3c(OCCN4CCOCC4)ccc1c23`, the IC50 in experiment [1] is 11.2 µM; in experiment [2] it was 8.48 µM; in [3] it was 8.07 µM; in [8], 10.1 µM; in experiment [4], more than 50 µM; in experiment [5], 6.01 µM. The molecule also displayed an IC50 in experiment [6] of 6.37 µM. For the same molecule, the inhibition of growth at 3 µM in experiment [7] stood at 8.33%.

For the molecule `O=C1c2ccccc2-c2nccc3c(OCCCn4cnc([N+](=O)[O-])c4)ccc1c23`, the IC50 was determined as 18.4 µM in experiment [1]; 8.29 µM in experiment [2]; 10.5 µM in [3]; 21.1 µM in experiment [4]; 9.03 µM in experiment [5]; 9.73 µM in [6].

Regarding `O=C1c2ccccc2-c2nccc3c(OCCCN4CCOCC4)ccc1c23`, the IC50 was 14.6 µM in experiment [1]; 9.52 µM in experiment [2]; 10.3 µM in experiment [3]; 1.81 µM in [8]; 32.4 µM in experiment [4]; 7.58 µM in [5]. In addition, half-maximal inhibition in experiment [6] (IC50) was put at 9.23 µM. For the same molecule, in [7], the inhibition of growth at 3 µM stood at 3.73%.

As for `O=C1c2ccccc2-c2nccc3c(OCCCn4cnc(Br)c4)ccc1c23`, the concentration for half-maximal inhibition (IC50) was 11.2 µM in [1]; 8.61 µM in experiment [2]; 8.12 µM in [3]; 36.8 µM in [4]; 6.09 µM in experiment [5]; 8.95 µM in experiment [6].

In the case of `O=C1c2ccccc2-c2nccc3c(OCCCCn4ccnc4[N+](=O)[O-])ccc1c23`, the IC50 in experiment [1] turned out to be 13.5 µM; in experiment [2] it was 10 µM; in [3] it was 10.9 µM; in experiment [4], 37.3 µM; in [5], 9.78 µM; in experiment [6] it was 10.6 µM.

Turning to `O=C1c2ccccc2-c2nccc3c(OCCCCCn4cnc([N+](=O)[O-])c4)ccc1c23`, the IC50 is 11.5 µM in [1]; 8.29 µM in experiment [2]; 8.67 µM in experiment [3]; 23.8 µM in experiment [4]; 10 µM in [5]; 7.36 µM in [6].

On to `O=C1c2ccccc2-c2nccc3c(OCCCCn4cnc([N+](=O)[O-])c4)ccc1c23`, for which the half-maximal inhibitory concentration (IC50) in experiment [1] is 18.3 µM; in experiment [2], 11.4 µM; in [3], 14.3 µM; in experiment [4], more than 50 µM; in experiment [5], 9.34 µM; in [6], 12.2 µM.

Take `CN1CCN(CCOc2ccc3c4c(nccc24)-c2ccccc2C3=O)CC1`: the half-maximal inhibitory concentration (IC50) in [1] is 13.2 µM; in [2] it was 9.33 µM; in experiment [3] it was 8.19 µM; in [8], 2.9 µM; in experiment [4] it was 22.4 µM; in experiment [5], 6.01 µM. Moreover, 7.26 µM corresponded to half-maximal inhibition in experiment [6] (IC50). In addition, in experiment [7], the inhibition of growth at 3 µM is 9.48%.

Turning to `Cc1cn(CCCOc2ccc3c4c(nccc24)-c2ccccc2C3=O)cn1`, the IC50 is 17.1 µM in experiment [1]; 12.1 µM in experiment [2]; 12 µM in experiment [3]; 23.8 µM in experiment [4]; 9.35 µM in [5]; 11.2 µM in [6].

As for `O=C1c2ccccc2-c2nccc3c(OCCCCCn4ccnc4[N+](=O)[O-])ccc1c23`, the IC50 in experiment [1] was determined as 10.2 µM; in experiment [2], 7.18 µM; in experiment [3], 8.13 µM; in [4], 30.2 µM; in experiment [5], 9.29 µM; in experiment [6], 6.09 µM.

Turning to `CN1CCN(CCCCOc2ccc3c4c(nccc24)-c2ccccc2C3=O)CC1`, the IC50 in experiment [1] is 13.2 µM; in experiment [2] it was 11.1 µM; in [3], 11.9 µM; in [8], 1.8 µM; in [4], more than 50 µM; in experiment [5] it was 8.67 µM. This molecule also had an IC50 in [6] of 11.1 µM. In experiment [7], the inhibition of growth at 3 µM is 6.68%.

`N#Cc1ncn(CCCCOc2ccc3c4c(nccc24)-c2ccccc2C3=O)c1C#N`: the IC50 is 10.1 µM in [1]; 7.34 µM in experiment [2]; 8.42 µM in experiment [3]; 26.8 µM in experiment [4]; 10.2 µM in experiment [5]; 6.17 µM in [6].

As for `O=C1c2ccccc2-c2nccc3cccc1c23`, the IC50 was 40.9 µM in [1]; 32.2 µM in experiment [2]; 28.2 µM in [3]; more than 50 µM in experiment [4]; 24 µM in experiment [5]; 26.2 µM in experiment [6].

Consider `COc1ccc(CCN(C)CCCC(C#N)(c2ccc(OC)c(OC)c2)C(C)C)cc1OC` (stereo not drawn), for which the IC50 in experiment [8] was 2.83 µM.

For the molecule `COc1cccc2c1C(=O)c1c(O)c3c(c(O)c1C2=O)C[C@@](O)(C(=O)CO)C[C@@H]3O[C@H]1C[C@H](N)[C@H](O)[C@H](C)O1` [DOXORUBICIN], in experiment [4], the IC50 stood at 0.18 µM.

Take `CN1CCN(CCCOc2ccc3c4c(nccc24)-c2ccccc2C3=O)CC1`: the IC50 was determined as 18.3 µM in experiment [1]; 10.5 µM in experiment [2]; 9.67 µM in experiment [3]; 11.4 µM in [8]; 25.9 µM in experiment [4]; 7.46 µM in experiment [5]. Further, the midpoint of inhibition in [6], the IC50, lay at 10 µM. The inhibition of growth at 3 µM in experiment [7] amounted to 8.89%.

Consider `CC1CCCCN1CCCOc1ccc2c3c(nccc13)-c1ccccc1C2=O` (stereo not drawn), for which the 50% inhibitory concentration (IC50) in experiment [1] stood at 16.2 µM; in [2], 7.94 µM; in experiment [3], 6.56 µM; in [8], 0.39 µM; in experiment [4], 19.5 µM; in experiment [5] it was 8.32 µM. The molecule also came in with an IC50 in [6] of 7.48 µM. Besides, the inhibition of growth at 3 µM in experiment [7] is 19.7%. Besides, the Activity in [9] came to 28.5%. Besides, the OD in [10] worked out at 2 nm.

Take `O=C1c2ccccc2-c2nccc3c(OCCCCn4cnc(Br)c4)ccc1c23`: the IC50 worked out at 12.1 µM in [1]; 10.2 µM in [2]; 7.46 µM in [3]; 32.3 µM in experiment [4]; 7.95 µM in experiment [5]; 8.53 µM in experiment [6].

`O=C1c2ccccc2-c2nccc3c(OCCCn4ccnc4[N+](=O)[O-])ccc1c23`: the IC50 was found to be 16.7 µM in experiment [1]; 12 µM in experiment [2]; 13.1 µM in experiment [3]; 39.6 µM in experiment [4]; 10.1 µM in experiment [5]; 10.3 µM in [6].

As to `CC1CCCCN1CCCCOc1ccc2c3c(nccc13)-c1ccccc1C2=O` (stereo not drawn), the IC50 in experiment [1] was determined as 15.2 µM; in [2], 8.46 µM; in [3], 10.1 µM; in experiment [8], 1.82 µM; in [4] it was 28.4 µM; in experiment [5], 9.95 µM. In experiment [6], this molecule gave a 50% inhibitory concentration (IC50) of 8.46 µM. Besides, the inhibition of growth at 3 µM in experiment [7] is 3.7%. In addition, the Activity in [9] was 22%. Also, the OD in experiment [10] amounted to 1.6 nm.

Take `N#Cc1ncn(CCCCCOc2ccc3c4c(nccc24)-c2ccccc2C3=O)c1C#N`: the IC50 in experiment [1] amounted to 10.1 µM; in experiment [2], 7.39 µM; in [3], 7.29 µM; in experiment [4], 31.1 µM; in experiment [5], 7.65 µM; in [6] it was 5.88 µM.

For the molecule `O=C1c2ccccc2-c2nccc3c(OCCCCN4CCOCC4)ccc1c23`, the IC50 in [1] worked out at 19.3 µM; in [2], 9.43 µM; in experiment [3], 10.3 µM; in [8] it was 6.12 µM; in experiment [4] it was 22.9 µM; in experiment [5], 8.46 µM. For the same molecule, the IC50 in [6] was 9.63 µM. Besides, the inhibition of growth at 3 µM in [7] came out at 17.4%.

Source of the values: ChEMBL document CHEMBL5154818, “Development of oxoisoaporphine derivatives with topoisomerase I inhibition and reversal of multidrug resistance in breast cancer MCF-7/ADR cells” (Eur J Med Chem, 2022).
